From patent EP0428423A2, “Aryloxy alkyl benzenes, processes for their preparation and pharmaceutical compositions containing them” (LIPHA S.A., priority 1989, dated 1991)

Molecular target: T1, COTRANSPORT Na-K (Homo sapiens, UniProt P55011)
T1 construct: systèmes de transport du sodium et du potassium des érythrocytes humains; endogenous in cells; host or cells: human erythrocytes
T1 sequence (P55011 1-1212): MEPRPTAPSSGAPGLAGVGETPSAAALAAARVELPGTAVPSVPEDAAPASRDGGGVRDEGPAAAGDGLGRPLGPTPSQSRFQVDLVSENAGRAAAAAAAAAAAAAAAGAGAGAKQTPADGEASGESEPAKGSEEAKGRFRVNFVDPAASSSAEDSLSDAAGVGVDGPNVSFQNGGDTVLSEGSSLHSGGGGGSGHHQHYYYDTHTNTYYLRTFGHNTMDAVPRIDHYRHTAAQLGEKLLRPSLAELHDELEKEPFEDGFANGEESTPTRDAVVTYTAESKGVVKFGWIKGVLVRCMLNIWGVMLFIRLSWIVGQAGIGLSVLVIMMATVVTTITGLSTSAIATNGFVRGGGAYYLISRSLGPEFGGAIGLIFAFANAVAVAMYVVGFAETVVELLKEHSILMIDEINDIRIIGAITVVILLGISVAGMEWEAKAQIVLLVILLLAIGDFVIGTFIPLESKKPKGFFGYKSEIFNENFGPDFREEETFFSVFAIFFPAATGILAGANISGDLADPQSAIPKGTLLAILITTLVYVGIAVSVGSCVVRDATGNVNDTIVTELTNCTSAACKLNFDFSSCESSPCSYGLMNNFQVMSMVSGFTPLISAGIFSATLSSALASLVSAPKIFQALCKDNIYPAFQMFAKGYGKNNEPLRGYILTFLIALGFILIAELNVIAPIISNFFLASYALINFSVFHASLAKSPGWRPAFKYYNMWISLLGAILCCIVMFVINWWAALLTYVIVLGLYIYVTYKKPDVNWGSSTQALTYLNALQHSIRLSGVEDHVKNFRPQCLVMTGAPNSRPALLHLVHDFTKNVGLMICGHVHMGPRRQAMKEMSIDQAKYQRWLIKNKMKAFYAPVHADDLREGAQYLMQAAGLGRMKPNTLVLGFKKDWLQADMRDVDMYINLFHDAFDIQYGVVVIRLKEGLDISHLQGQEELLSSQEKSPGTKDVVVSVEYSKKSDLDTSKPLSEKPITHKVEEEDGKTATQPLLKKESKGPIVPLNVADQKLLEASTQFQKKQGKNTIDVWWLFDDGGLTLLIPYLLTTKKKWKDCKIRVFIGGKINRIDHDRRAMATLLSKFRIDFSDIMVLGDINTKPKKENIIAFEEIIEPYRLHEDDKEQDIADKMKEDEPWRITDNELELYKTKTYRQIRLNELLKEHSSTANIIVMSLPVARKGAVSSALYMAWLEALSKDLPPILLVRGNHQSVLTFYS
Assay: Na-K cotransport of human erythrocytes
Format: cell-based, ERYTHROCYTES HUMAINS
Settings: human erythrocytes; read-out: EFFET SUR LE COTRANSPORT Na-K IC 50
From the text: Cet effet a été étudié selon la méthodologie décrite par G. GARAY et coll. dans Naunyn-Schmidberg's Arch. Pharmakol. […] Pharm.

- IC50: > 600 µM
Structure (SMILES): Cc1ccc(O)c(CCOc2ccccc2)c1 [ex 36]
